Measured values from patent US9102648B1, “Bioavailable diacylhydrazine ligands for modulating the expression of exogenous genes via an ecdysone receptor complex” (Intrexon Corporation, priority 2003, dated 2015).
Where two headings read alike, the source gives them in different places.

Tests used:
[1] = molecular target: GAL4 DBD-CfEcR(DEF)/VP16AD-MmRXRE (Choristoneura fumiferana, UniProt O77240); assay: 13B3 Assay (CHO stable cell line, luciferase reporter); conditions: for Fold Induction, 13B3 Assay, 33 uM: 33 uM ligand; for Fold Induction, 13B3 Assay, 33 uM / Fold Induction, 13B3 Assay, 3.3 uM: RLU ligand treated / RLU DMSO treated cells; for Fold Induction, 13B3 Assay, 3.3 uM: 3.3 uM ligand; for 13B3 assay Rel Max FI: maximum fold induction at any concentration relative to that of GS-E ligand, CHO 13B3 cells; for fold induction at 3.3 µM: read-out: Fold Induction, 13B3 Assay, 3.3 uM; for fold induction at 33 µM: read-out: Fold Induction, 13B3 Assay, 33 uM
In short: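 CHO 13B3 clone stably expressing GAL4 DBD–CfEcR(DEF) and VP16AD–MmRXR(DE) with GAL4 RE–luciferase reporter; cells plated 24 h at 37 °C, then treated with ligands (DMSO stocks diluted 300-fold), 8 concentrations 33–0.01 μM.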

[2] = molecular target: GAL4 DBD (1-147)-CfEcR(DEF)/VP16AD-βRXREF-LmUSPEF (Choristoneura fumiferana, UniProt O77240); assay: cell-based; conditions: for Fold Induction, 27-63 Assay, 3.3 uM: 3.3 uM ligand; for Fold Induction, 27-63 Assay, 3.3 uM / Fold Induction, 27-63 Assay, 33 uM: RLU ligand treated / RLU DMSO treated cells; for Fold Induction, 27-63 Assay, 33 uM: 33 uM ligand; for 27-63 assay Rel Max FI: maximum fold induction at any concentration relative to that of GS-E ligand, CHO 27-63 cells; for fold induction at 3.3 µM: read-out: Fold Induction, 27-63 Assay, 3.3 uM; for fold induction at 33 µM: read-out: Fold Induction, 27-63 Assay, 33 uM
[3] = read-out: 27-63 assay EC50, CHO 27-63 stable cell line, luciferase reporter, average of two wells
[4] = read-out: 13B3 EC50, CHO 13B3 stable cell line, luciferase reporter, 48 h, average of two wells

Row | SMILES | Fold Induction, 13B3 Assay, 33 uM ([1]; average of two wells) | Fold Induction, 27-63 Assay, 3.3 uM ([2]; average of two wells) | Fold Induction, 27-63 Assay, 33 uM ([2]; average of two wells) | 27-63 assay Rel Max FI [2] | EC50 [2, 3] [nM] | Fold Induction, 13B3 Assay, 3.3 uM ([1]; average of two wells) | 13B3 assay Rel Max FI [1] | EC50 [1, 4] [nM] | EC50 [1] [nM] | fold induction at 3.3 µM [1] | fold induction at 33 µM [1] | EC50 [2] [nM] | fold induction at 3.3 µM [2] | fold induction at 33 µM [2]
1 | CC(O)c1ccc(C(=O)NN(C(=O)c2cc(F)cc(F)c2)C(C)(C)C)cc1 (stereo not drawn) [RG-100342] | 611 | 2 | 1287 | 0.674 | 17700 |  |  |  |  |  |  |  |  | 
2 | COc1cccc(C(=O)N(NC(=O)c2ccc3c(c2C)OCCO3)C(C)(C)C)c1 [RG-100360] | 745 | 1627 | 1353 | 0.873 | 615 | 1111 | 0.825 | 588 |  |  |  |  |  | 
3 | Cc1c(C(=O)NN(C(=O)c2ccc(F)cc2)C(C)(C)C)ccc2c1OCCO2 [RG-100425] | 747 | 1156 | 1099 | 0.671 | 370 |  |  |  |  |  |  |  |  | 
4 | Cc1c(C(=O)NN(C(=O)c2ccc(F)cc2)C(C)(C)C)ccc2c1OCO2 [RG-100448] | 2 | 66 | 847 | 0.609 | 5290 |  |  |  |  |  |  |  |  | 
5 | COc1ccccc1C(=O)N(NC(=O)c1ccc2c(c1)OCCO2)C(C)(C)C [RG-100492] | 1002 | 4 | 1378 | 0.916 | 11800 |  |  |  |  |  |  |  |  | 
6 | COc1cccc(C(=O)NN(C(=O)c2cc(C)cc(C)c2)C(C)(C)C)c1[N+](=O)[O-] [RG-100568] | 4122 | 615 | 2286 | 1.197 | 4130 | 2 | 1.035 | 44300 |  |  |  |  |  | 
7 | COc1cccc(C(=O)NN(C(=O)c2cc(C)ccc2[N+](=O)[O-])C(C)(C)C)c1C [RG-100569] | 329 | 884 | 841 | 0.720 | 287 | 1710 | 0.773 | 185 |  |  |  |  |  | 
8 | CCc1c(C(=O)NN(C(=O)c2ccccc2OC)C(C)(C)C)ccc2c1OCCO2 [RG-100690] | 500 | 1136 | 1047 | 0.727 | 200 | 1094 | 0.506 | 268 |  |  |  |  |  | 
9 | CCc1c(C(=O)NN(C(=O)c2cccc(OC)c2)C(C)(C)C)ccc2c1OCCO2 [RG-100691] | 643 | 1378 | 1209 | 0.863 | 330 |  |  |  |  |  |  |  |  | 
10 | COc1cccc(C(=O)NN(C(=O)c2cccc(C)c2)C(C)(C)C)c1C [RG-100694] | 2078 | 1057 | 1004 | 0.767 | 400 | 3385 | 0.632 | 405 |  |  |  |  |  | 
11 | CCc1c(OC)cccc1C(=O)NN(C(=O)c1ccc2c(c1)OCO2)C(C)(C)C [RG-100699] | 2296 | 398 | 1413 | 0.939 | 3960 |  |  |  |  |  |  |  |  | 
12 | CCc1c(OC)cccc1C(=O)NN(C(=O)c1ccccc1OC)C(C)(C)C [RG-100725] | 581 | 1096 | 1050 | 0.726 | 330 |  |  |  |  |  |  |  |  | 
13 | COc1ccc(OC)c(C(=O)N(NC(=O)c2cccc(C)c2C)C(C)(C)C)c1 [RG-100763] | 2442 | 107 | 1609 | 0.856 | 5300 |  |  |  |  |  |  |  |  | 
14 | COc1ccc(C)cc1C(=O)N(NC(=O)c1cccc(OC)c1C)C(C)(C)C [RG-100766] | 391 | 931 | 1993 | 0.944 | 3420 |  |  |  |  |  |  |  |  | 
15 | COc1cc(C)cc(C(=O)N(NC(=O)c2cccc(OC)c2C)C(C)(C)C)c1 [RG-100767] | 682 | 2097 | 2171 | 1.218 | 334 | 4504 | 0.920 | 1060 |  |  |  |  |  | 
16 | CC(C)(C)N(NC(=O)c1ccc(Cl)cc1)C(=O)c1ccccc1 [RG-100864] |  |  |  | 0.716 |  |  |  |  | 1160 | 318 | 187 | 17300 | 1 | 1180
17 | COc1cccc(C(=O)NN(C(=O)c2cc(Cl)c(F)c(Cl)c2)C(C)(C)C)c1C [RG-101382, N-(3-methoxy-2-methylbenzoyl)-N′-(3,5-dichloro-4-fluorobenzoyl)-N′-tert-butylhydrazine] |  |  |  | 1.188 |  |  | 0.915 |  | 588 | 13100 | 1010 | 306 | 2700 | 2570
18 | CCc1c(C(=O)NN(C(=O)c2cc(C)cc(Cl)c2)C(C)(C)C)ccc2c1OCCO2 [RG-101494, N-(5-ethyl-1,4-benzodioxan-6-carbonyl)-N′-(tert-butyl)-N′-(3-chloro-5-methylbenzoyl)hydrazine] |  |  |  | 0.916 |  |  | 0.822 |  | 148 | 755 | 613 | 36 | 717 | 294
19 | CCc1ccc(C(=O)NN(C(=O)c2cc(C)cc(C)c2)C(C)(C)C)c(F)c1 [RG-101523, 3,5-Dimethyl-benzoic acid N-tert-butyl-N′-(4-ethyl-2-fluoro-benzoyl)-hydrazide] |  |  |  | 0.943 |  |  | 0.772 |  | 2370 | 831 | 718 | 165 | 2430 | 2740
20 | CCc1ccc(C(=O)NN(C(=O)c2cc(C)cc(C)c2)C(C)(C)C)cc1 [RG-102125] |  |  |  | 0.721 |  |  |  |  | 479 |  |  | 190 |  | 
21 | CCc1c(OC)cccc1C(=O)NN(C(=O)c1cc(C)cc(C)c1)C(C)(C)C [RG-102240, N-(3-methoxy-2-ethylbenzoyl)-N′-(3,5-dimethylbenzoyl)-N′-tert-butylhydrazine] |  |  |  | 1 |  |  | 1 |  | 500 |  |  |  |  | 
22 | Cc1cc(C)cc(C(=O)N(NC(=O)c2ccc3c(c2C)OCCO3)C(C)(C)C)c1 [RG-102317, N-(5-methyl-1,4-benzodioxan-6-carbonyl)-N′-(tert-butyl)-N′-(3,5-dimethylbenzoyl)hydrazine] |  |  |  | 0.948 |  |  |  |  | 345 | 2420 | 814 | 102 | 2550 | 2500
23 | COc1cccc(C(=O)NN(C(=O)c2cc(C)cc(C)c2)C(C)(C)C)c1C [RG-102398] |  |  |  | 1.017 |  |  | 0.838 |  | 627 | 8120 | 795 | 325 | 2880 | 3180
24 | CCC(N(NC(=O)c1cccc(C)c1C)C(=O)c1cc(C)cc(C)c1)C(C)(C)C (stereo not drawn) [RG-103309, 3,5-dimethyl-benzoic acid N′-(2,3-dimethyl-benzoyl)-N-(1-ethyl-2,2-dimethyl-propyl)-hydrazide] |  |  |  | 0.975 |  |  | 1.486 |  | 146 | 924 | 95 | 3020 | 2540 | 1200
25 | CCOC(=O)C(C)(C)N(NC(=O)c1cccc(OC)c1CC)C(=O)c1cc(C)cc(C)c1 [RG-115025, 2-[N-(3,5-dimethyl-benzoyl)-N′-(2-ethyl-3-methoxy-benzoyl)-hydrazino]-2-methyl-propionic acid ethyl ester] |  |  |  | 1.523 |  |  | 0.186 |  | 39300 | 8 | 1700 | 2450 | 2290 | 2240
26 | CCc1c(OC)cccc1C(=O)NN(C(=O)c1cc(C)cc(C=NNC(=O)C(N)=O)c1)C(C)(C)C [RG-115613, oxamic hydrazone of N-(3-formyl-5-methyl-benzoyl)-N-tert-butyl-N′-(2-ethyl-3-methoxy-benzoyl) hydrazide] | 1726 |  |  |  |  | 180 | 0.734 | 5940 |  |  |  |  |  | 
